Results: ChEMBL document CHEMBL3638496, “Pyrazolopyrrolidine derivatives and their use in the treatment of disease” (2015)

What was measured:
CREB-binding protein = CREB-binding protein (Homo sapiens, UniProt Q92793); assay: AlphaScreen In-Vitro Binding Assay: In order to assess bromodomain selectivity, we set up a binding assay using the bromodomain encoded by the CREBBP gene. Compounds were tested in the CREBBP assay with a similar protocol, however using AlphaScreen (Amplified Luminescent Proximity Homogeneous Assay, Perkin Elmer) as detection readout instead of TR-FRET. The assay was started by stepwise addition of 4.5 uL per well of bromo domain protein (50 mM HEPES, pH 7.5, 0.005% Tween20, 0.02% BSA, 150 mM NaCl, 324 nM His-CREBBP (1081-1197) (custom production at Viva Biotech Ltd.)) and 4.5 uL per well of peptide solution (50 mM HEPES, pH 7.5, 0.005% Tween20, 0.02% BSA, 150 mM NaCl, 120 nM acetyl-histone H4 (AcK 5, 8, 12) (Biosyntan GmbH)). Reactions were incubated at 30 C. for 35 minutes. Subsequently 4.5 uL per well detection mix (50 mM HEPES, pH 7.5, 0.005% Tween20, 0.02% BSA, 150 mM NaCl, 45 ug/ml Ni-chelate acceptor beads, 45 ug/mL streptavidin-donor beads) (Perkin Elmer)) were added.
Chain of CREB-binding protein (Q92793 whole entry, the tested form may be a part): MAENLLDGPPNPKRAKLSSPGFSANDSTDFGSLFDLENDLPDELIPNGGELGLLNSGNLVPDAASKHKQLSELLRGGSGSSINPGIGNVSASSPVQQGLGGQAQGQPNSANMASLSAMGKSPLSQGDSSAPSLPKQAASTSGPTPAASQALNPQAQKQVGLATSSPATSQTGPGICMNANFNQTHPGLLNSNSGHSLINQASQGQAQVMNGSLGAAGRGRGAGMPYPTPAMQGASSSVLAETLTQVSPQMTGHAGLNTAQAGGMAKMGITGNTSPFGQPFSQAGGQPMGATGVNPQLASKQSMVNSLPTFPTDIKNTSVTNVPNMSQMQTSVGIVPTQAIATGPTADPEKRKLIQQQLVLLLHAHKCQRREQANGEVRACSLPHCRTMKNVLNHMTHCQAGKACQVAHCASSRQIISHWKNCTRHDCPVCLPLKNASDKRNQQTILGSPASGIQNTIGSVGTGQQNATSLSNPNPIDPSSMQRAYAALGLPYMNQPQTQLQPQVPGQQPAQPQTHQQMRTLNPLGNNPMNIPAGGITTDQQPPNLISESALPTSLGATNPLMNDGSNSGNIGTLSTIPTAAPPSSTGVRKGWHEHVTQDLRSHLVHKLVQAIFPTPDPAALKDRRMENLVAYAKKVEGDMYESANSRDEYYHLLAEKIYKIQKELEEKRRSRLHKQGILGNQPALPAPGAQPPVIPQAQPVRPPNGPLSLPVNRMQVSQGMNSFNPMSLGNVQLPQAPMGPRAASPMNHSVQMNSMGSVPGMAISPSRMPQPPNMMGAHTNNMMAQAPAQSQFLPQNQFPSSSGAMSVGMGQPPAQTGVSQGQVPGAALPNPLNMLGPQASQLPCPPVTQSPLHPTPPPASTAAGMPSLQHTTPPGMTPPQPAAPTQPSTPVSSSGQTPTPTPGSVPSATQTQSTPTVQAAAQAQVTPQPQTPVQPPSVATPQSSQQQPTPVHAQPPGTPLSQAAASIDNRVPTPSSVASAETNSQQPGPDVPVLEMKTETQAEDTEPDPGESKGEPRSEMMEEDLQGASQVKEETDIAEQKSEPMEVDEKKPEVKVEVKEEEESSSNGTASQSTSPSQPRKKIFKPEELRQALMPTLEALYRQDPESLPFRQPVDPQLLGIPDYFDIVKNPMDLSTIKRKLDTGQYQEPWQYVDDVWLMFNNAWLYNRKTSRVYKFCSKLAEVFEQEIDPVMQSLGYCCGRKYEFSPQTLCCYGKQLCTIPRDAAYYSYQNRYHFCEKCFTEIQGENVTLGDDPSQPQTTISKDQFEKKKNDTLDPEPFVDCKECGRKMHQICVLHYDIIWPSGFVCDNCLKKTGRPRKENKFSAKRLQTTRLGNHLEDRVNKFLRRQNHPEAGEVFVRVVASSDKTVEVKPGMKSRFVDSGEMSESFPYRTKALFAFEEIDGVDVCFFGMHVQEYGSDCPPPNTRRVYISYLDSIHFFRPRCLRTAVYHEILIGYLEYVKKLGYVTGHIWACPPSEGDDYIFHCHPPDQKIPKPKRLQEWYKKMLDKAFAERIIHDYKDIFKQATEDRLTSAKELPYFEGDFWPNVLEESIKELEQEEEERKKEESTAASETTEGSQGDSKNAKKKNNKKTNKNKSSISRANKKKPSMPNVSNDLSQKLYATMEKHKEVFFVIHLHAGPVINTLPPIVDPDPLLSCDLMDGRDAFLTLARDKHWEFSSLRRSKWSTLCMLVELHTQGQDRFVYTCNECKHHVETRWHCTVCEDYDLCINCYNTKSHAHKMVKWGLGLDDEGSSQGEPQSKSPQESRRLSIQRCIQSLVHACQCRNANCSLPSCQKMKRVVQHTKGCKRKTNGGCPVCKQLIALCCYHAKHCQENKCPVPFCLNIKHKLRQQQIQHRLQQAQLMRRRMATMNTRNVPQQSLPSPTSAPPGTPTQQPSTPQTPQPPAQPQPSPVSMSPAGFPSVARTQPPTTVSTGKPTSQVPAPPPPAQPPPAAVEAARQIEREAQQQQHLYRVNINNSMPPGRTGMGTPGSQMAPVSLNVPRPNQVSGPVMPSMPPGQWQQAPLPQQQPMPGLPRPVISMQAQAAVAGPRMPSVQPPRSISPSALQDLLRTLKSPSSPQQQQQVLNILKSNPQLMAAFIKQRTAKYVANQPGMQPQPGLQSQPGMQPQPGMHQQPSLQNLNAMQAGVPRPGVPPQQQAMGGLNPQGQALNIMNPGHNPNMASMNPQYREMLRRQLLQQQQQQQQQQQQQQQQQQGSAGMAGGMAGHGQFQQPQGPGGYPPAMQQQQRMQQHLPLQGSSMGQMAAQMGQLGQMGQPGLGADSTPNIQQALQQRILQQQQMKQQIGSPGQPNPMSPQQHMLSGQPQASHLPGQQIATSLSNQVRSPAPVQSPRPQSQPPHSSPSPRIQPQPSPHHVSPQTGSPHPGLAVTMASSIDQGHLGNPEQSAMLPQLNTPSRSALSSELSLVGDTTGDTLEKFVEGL

[1] = target: Bromodomain-containing protein 3 (Homo sapiens, UniProt Q15059); assay: (§1) TR-FRET In-Vitro Binding Assay: All assays were performed in 384-well microtiter plates. Each assay plate contained 8-point serial dilutions for 40 test compounds, plus 16 high- and 16 low controls. Liquid handling and incubation steps were done on an Innovadyne Nanodrop Express equipped with a robotic arm (Thermo CatX, Perkin Elmer/Caliper Twister II) and an incubator (Liconic STX40, Thermo Cytomat 2C450). The assay plates were prepared by addition of 50 nl per well of compound solution in 90% DMSO HummingBird nanodispenser (Zinsser Analytic). The assay was started by stepwise addition of 4.5 uL per well of bromo domain protein (50 mM HEPES, pH 7.5, 0.005% Tween20, 0.1% BSA, 50 mM NaCl, 45 nM His-Brd2(60-472) or 45 nM His-Brd3(20-477) or 45 nM His-Brd4(44-477) all proteins produced in-house) and 4.5 uL per well of peptide solution (50 mM HEPES, pH 7.5, 0.005% Tween20, 0.1% BSA, 50 mM NaCl, 60 nM acetyl-histone H4 (AcK 5, 8, 12, 16) (Biosyntan GmbH)). Reactions were incubated at 30 C. for 35 minutes.
Chain of Bromodomain-containing protein 3 (Q15059 whole entry, the tested form may be a part): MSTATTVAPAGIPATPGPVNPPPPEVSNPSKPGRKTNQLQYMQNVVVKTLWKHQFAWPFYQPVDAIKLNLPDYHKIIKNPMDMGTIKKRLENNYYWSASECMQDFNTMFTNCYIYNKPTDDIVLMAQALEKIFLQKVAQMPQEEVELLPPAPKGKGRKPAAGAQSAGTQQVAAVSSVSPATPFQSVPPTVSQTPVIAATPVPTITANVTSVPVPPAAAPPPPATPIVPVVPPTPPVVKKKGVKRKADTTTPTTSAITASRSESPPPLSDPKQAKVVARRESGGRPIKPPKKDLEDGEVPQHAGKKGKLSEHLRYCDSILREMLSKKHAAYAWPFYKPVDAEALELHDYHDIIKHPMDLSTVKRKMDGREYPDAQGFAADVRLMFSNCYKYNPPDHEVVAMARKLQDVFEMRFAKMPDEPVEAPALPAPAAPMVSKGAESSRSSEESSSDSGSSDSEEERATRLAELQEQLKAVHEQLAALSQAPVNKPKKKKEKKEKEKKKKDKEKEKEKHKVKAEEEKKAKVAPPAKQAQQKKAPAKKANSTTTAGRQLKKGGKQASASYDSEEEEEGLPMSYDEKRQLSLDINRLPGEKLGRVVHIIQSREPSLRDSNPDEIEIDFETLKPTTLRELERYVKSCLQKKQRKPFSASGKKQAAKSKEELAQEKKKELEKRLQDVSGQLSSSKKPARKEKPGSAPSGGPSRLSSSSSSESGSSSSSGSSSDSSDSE

[2] = target: Bromodomain-containing protein 2 (Homo sapiens, UniProt P25440); assay: as §1
Chain of Bromodomain-containing protein 2 (P25440 whole entry): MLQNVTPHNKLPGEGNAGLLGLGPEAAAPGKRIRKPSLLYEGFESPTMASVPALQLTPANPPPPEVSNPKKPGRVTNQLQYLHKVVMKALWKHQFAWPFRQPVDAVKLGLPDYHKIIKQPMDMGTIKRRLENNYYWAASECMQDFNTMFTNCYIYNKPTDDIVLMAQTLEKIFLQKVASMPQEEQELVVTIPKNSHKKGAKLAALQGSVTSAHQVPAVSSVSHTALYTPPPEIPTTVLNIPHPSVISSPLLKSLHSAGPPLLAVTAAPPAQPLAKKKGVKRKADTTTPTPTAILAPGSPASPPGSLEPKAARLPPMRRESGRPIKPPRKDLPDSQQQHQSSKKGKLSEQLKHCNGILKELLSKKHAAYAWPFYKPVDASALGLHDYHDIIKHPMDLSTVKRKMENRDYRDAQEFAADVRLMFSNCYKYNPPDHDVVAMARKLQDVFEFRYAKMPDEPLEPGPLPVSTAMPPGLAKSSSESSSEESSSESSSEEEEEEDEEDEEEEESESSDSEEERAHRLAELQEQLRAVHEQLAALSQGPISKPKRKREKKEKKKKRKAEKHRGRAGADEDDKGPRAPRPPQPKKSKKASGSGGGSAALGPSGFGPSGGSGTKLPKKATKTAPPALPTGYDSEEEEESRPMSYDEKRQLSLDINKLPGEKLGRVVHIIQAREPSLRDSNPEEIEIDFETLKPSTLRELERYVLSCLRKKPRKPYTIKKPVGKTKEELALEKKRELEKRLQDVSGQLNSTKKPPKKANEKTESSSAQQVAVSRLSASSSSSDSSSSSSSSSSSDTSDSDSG

[3] = target: Bromodomain-containing protein 4 (Homo sapiens, UniProt O60885); assay: as §1

SMILES	IC50 (CREB-binding protein) [nM]	IC50 [1] [nM]	IC50 [2] [nM]	IC50 [3] [nM]
CCc1nn(CCOC)c2c1C(c1ccc(Cl)cc1)N(c1cc(C)c(=O)n(C)c1)C2=O (stereo not given)	4800	44	52	–
Cc1cc(N2C(=O)c3nn(C(C)C)c(C)c3C2c2ccc(Cl)cc2F)cn2c(C)nnc12 (stereo not given)	2600	60	120	71
COc1ncccc1-n1nc2c(c1C)C(c1ccc(F)cc1F)N(c1cc(C)c3nnc(C)n3c1)C2=O (stereo not given)	16000	80	130	55
Cc1[nH]nc2c1C(c1ccc(Cl)cc1F)N(c1cc(C)c(=O)n(C)c1)C2=O (stereo not given)	2800	170	270	190
